# Tests used:
# Format in all cases: cell-based
# [1] = system: P. aeruginosa ATCC27853; experiment: Antibacterial activity in combination with doxycycline; details: Pseudomonas aeruginosa, 24 h
# Description: (§1) 100 μl of a liquid culture medium is deposited in each well of a 96-well microplate, and then inoculated with the bacterial suspension of example 2.1 prepared for the positive control. The volume needed to inoculate is calculated for an OD of 0.01 which corresponds to approximately 5,106 bacteria in each well. In this plate, the first row corresponds to a negative control (200 μl of sterile culture medium in each well), the second row to a positive control (100 μl of sterile culture medium with 100 μl of the bacterial suspension), the third row contains 192 μl of culture medium and 8 μl of polyaminated fatty acid compound to be tested in each well. Subsequently, a cascade dilution is performed from this line. Next, 3-8 μl of a doxycycline solution (1 mg dissolved in 20 ml) is added to each well of the lines to obtain a final antibiotic concentration of 2 μg/ml. Then, 92 μl of bacterial suspension is added to lines 3 to 8. The MIC with a concentration of doxycycline of 2 μg/ml in the presence of X μg/ml of polyaminated fatty acid compound is determined after 24 hours of incubation at 37 °C in a humid atmosphere.
# The table 2 below reports the antibacterial activity (MIC in μM) of a combination of some polyaminated fatty acids prepared in example 1 with two antibacterial drugs doxycycline and erythromycin. […] On the Gram-negative strain of E. coli ([…]), erythromycin has a MIC of 50 μg/ml.
# [2] = system: E. coli AG-100A; experiment: Potentiation of known antibiotics (MIC of antibiotic alone or with PAFA); details: Escherichia coli, AG100A, 24 h
# Description: (§2) 100 μl of a liquid culture medium is deposited in each well of a 96-well microplate, and then inoculated with the bacterial suspension of example 2.1 prepared for the positive control. The volume needed to inoculate is calculated for an OD of 0.01 which corresponds to approximately 5,106 bacteria in each well. In this plate, the first row corresponds to a negative control (200 μl of sterile culture medium in each well), the second row to a positive control (100 μl of sterile culture medium with 100 μl of the bacterial suspension), the third row contains 192 μl of culture medium and 8 μl of an antibiotic solution (10 mg/ml) to be tested in each well. Subsequently, a cascade dilution is performed from this line. Next, 10 μl of a fatty acid solution (10 μM final concentration) is added to each well of the lines. Then, 90 μl of bacterial suspension is added to lines 3 to 8. The MIC of the antibiotic tested is determined after 24 hours of incubation at 37 °C in a humid atmosphere.
# (§3) The table 3 below reports the antibacterial activity (MIC in μg/mL) of a combination of some polyaminated fatty acids prepared in example 1 with various antibacterial drugs: doxycycline (DOX), tetracycline (TET), oxytetracycline (OXY) and minocycline (MINO), against various bacterial strains of P. aeruginosa (PA01, PA0509, and PA263), and of E. coli (AG-100 and AG-100A).
# [3] = system: E. coli AG-100; experiment: as above; details: Escherichia coli, AG100, 24 h
# Description: as §2, §3
# [4] = system: P. aeruginosa PA01; experiment: as above; details: Pseudomonas aeruginosa, PA01, 24 h
# Description: as §2, §3
# [5] = system: P. aeruginosa PA0509; experiment: as above; details: Pseudomonas aeruginosa, PA0509, 24 h
# Description: as §2, §3
# [6] = system: P. aeruginosa PA263; experiment: as above; details: Pseudomonas aeruginosa, PA263, 24 h, 24 h
# Description: as §2, §3
# [7] = system: E. faecalis ATCC29212; experiment: Intrinsic antibacterial activity, standard microdilution (CLSI); details: Enterococcus faecalis; E. faecalis ATCC29212, compound alone, 24 h, 37 °C
# Description: (§4) The bacterial strains used in the examples below are the reference strains P. aeruginosa ATCC27853, E. coli ATCC25922, K. pneumoniae ATCC51296, S. aureus ATCC25923 and E. faecalis ATCC29212. The bacterial strains were previously stored in 15% (v/v) glycerol at −80 °C for cryoprotection. One colony of the fresh culture of each strain was incubated in a culture tube containing 3 ml of Mueller-Hinton broth (MH2) at 37 °C overnight with agitation. This suspension was used for inoculum preparation.
# (§5) The antibacterial activity of said polyaminated fatty acid compounds was measured using a standard microdilution test based on Clinical and Laboratory Standards Institute (CLSI) guidelines. This method was slightly modified by increasing the assay volumes to 200 μl so as to improve reproducibility.
# (§6) A negative control which corresponds to 2 ml of sterile culture medium and a positive control which corresponds to a mixture of 1980 μl of culture medium and 20 μl of bacterial suspension from a thawed biological strain (biological strains are stored at −80 °C in glycerol) were prepared.
# (§7) The tubes were incubated in an incubator shaker “Infors” at 37 °C for 24 hours at 100 round per minute (rpm).
# (§8) The polyaminated fatty acid compounds to be tested were prepared in water at a concentration of 10 mM.
# (§9) The required volume of the microbial suspension to be inoculated was calculated for an optical density (OD) measured corresponding to a value equal to 0.01 in each well by using a spectrophotometer at 600 nm. In the microplate, the first row corresponded to the negative control (200 μl of sterile culture medium in each well), the second row to the positive control (seeded culture medium), the third row was loaded twice with bacterial suspension and with 8 μl of a given polyaminated fatty acid compound in each well. Subsequently, a half-fold cascade dilution was performed from this line. The first column was used as an inhibition control. A sterile filter was then placed on the microplate allowing the passage of gases but not contaminants. The microplate was incubated at 37 °C in a humid atmosphere for 24 hours. After 24 hours of incubation, an optical density measurement was performed by taking 100 μl of the bacterial suspension diluted in 900 μl of sterile culture medium.
# (§10) The medium used was Mueller-Hinton medium (MH) for bacteria. All tests were performed in duplicate.
# (§11) Table 1 below reports the intrinsic antibacterial activity of some polymaminated fatty acids prepared in example 1 (MIC in μM) as well as their toxicity towards eucaryotic cells (IC50 in μM).
# [8] = system: P. aeruginosa ATCC27853; experiment: as above; details: Pseudomonas aeruginosa; P. aeruginosa ATCC27853, compound alone, 24 h, 37 °C
# Description: as §4, §5, §6, §7, §8, §9, §10, §11
# [9] = system: S. aureus ATCC25923; experiment: as above; details: Staphylococcus aureus; S. aureus ATCC25923, compound alone, 24 h, 37 °C
# Description: as §4, §5, §6, §7, §8, §9, §10, §11
# [10] = system: E. coli ATCC28922; experiment: as above; details: Escherichia coli, ATCC28922, 24 h
# [11] = system: Chinese hamster ovary cells (CHO-K1); experiment: Toxicity on mammalian cells, WST1 assay; details: Cricetulus griseus; CHO-K1 cell viability, WST1, 24 h
# Description: The WST1 assay was used to measure the cytotoxic activity of the polyaminated fatty acid compounds. It is a colorimetric assay that measures viability and cell proliferation rate. It is based on the cleavage of colorless tetrazolium salts WST-1 (4-[3-(4-iodophenyl)-2-(4-nitrophenyl)-2H-5-tetrazolio]-1,3-benzene disulfonate) by mitochondrial dehydrogenases into yellow formazan derivative, quantifiable by spectrophotometry at 420-480 nm.
# The WST1 assay was performed on Chinese hamster ovary cells. CHO-K1 cells (ATCC, USA) were maintained in culture in “Mac Coy's 5A” medium supplemented with 10% fetal calf serum, 2 mM L-glutamine and streptomycin penicillin mixture (100 U/ml: 10 μg/ml). Incubation is carried out at 37 °C under CO2 enriched atmosphere (5% by volume) and subcultured every two days.
# Cells are transferred to 96-well plates (25,000 cells/ml) in complete “Mac Coy's 5A medium”, and maintained for 24 h at 37 °C under a humid CO2-enriched atmosphere (5% by volume). Increasing concentrations of given polyaminated fatty acid compounds are added to the wells in duplicate assays and 8 growth controls containing cells in medium alone are included in each assay run. After 24 hours at 37 °C (5% CO2), the culture medium is removed, the cells are rinsed in phosphate buffer (PBS) and 50 μL of PBS containing 10% WST1 reagent is added to each well. After 20 minutes of incubation at 37 °C, the results are read by spectrophotometry at 450 nm.
# The results are expressed as dose-response relationships, modeled by a non-linear regression analysis using TableCurve software. The 50% Inhibitory Concentration (IC50) represents the concentration of polyaminated fatty acid compound capable of reducing cell viability by 50%.
# [12] = system: E. coli ATCC28922; experiment: Antibacterial activity in combination with erythromycin; details: Escherichia coli, ATCC28922, 24 h
# Description: as §1
# The table 2 below reports the antibacterial activity (MIC in μM) of a combination of some polyaminated fatty acids prepared in example 1 with two antibacterial drugs doxycycline and erythromycin. […]
# [13] = P. aeruginosa ATCC27853 + Doxycycline (2 μg/ml)
smiles,measurement,setting,value
"C[C@H]1c2cccc(O)c2C(=O)C2=C(O)[C@]3(O)C(=O)C(C(N)=O)=C(O)[C@@H](N(C)C)[C@@H]3[C@@H](O)[C@@H]21 [DOX, doxycycline]",MIC,"[1]; antibiotic alone, P. aeruginosa ATCC27853",32 mg/L
same,MIC,[2]; Antibiotic alone,0.5 mg/L
same,MIC,"[2]; MIC of antibiotic, +PAFA10 (10 μM)",0.25 mg/L
same,MIC,"[2]; MIC of antibiotic, +PAFA11 (10 μM)",0.25 mg/L
same,MIC,"[2]; MIC of antibiotic, +PAFA14 (10 μM)",0.008 mg/L
same,MIC,"[3]; AG-100, Antibiotic alone",1 mg/L
same,MIC,"[3]; MIC of antibiotic, AG-100, +PAFA10 (10 μM)",0.25 mg/L
same,MIC,"[3]; MIC of antibiotic, AG-100, +PAFA11 (10 μM)",0.25 mg/L
same,MIC,"[3]; MIC of antibiotic, AG-100, +PAFA14 (10 μM)",0.008 mg/L
same,MIC,"[4]; MIC of antibiotic, PA01, +PAFA10 (10 μM)",2 mg/L
same,MIC,"[4]; MIC of antibiotic, PA01, +PAFA11 (10 μM)",2 mg/L
same,MIC,"[4]; MIC of antibiotic, PA01, +PAFA14 (10 μM)",0.125 mg/L
same,MIC,"[4]; PA01, Antibiotic alone",32 mg/L
same,MIC,[5],1 mg/L
same,MIC,"[5]; MIC of antibiotic, PA0509, +PAFA10 (10 μM), 24 h",0.25 mg/L
same,MIC,"[5]; MIC of antibiotic, PA0509, +PAFA11 (10 μM), 24 h",0.25 mg/L
same,MIC,"[5]; MIC of antibiotic, PA0509, +PAFA14 (10 μM), 24 h",0.125 mg/L
same,MIC,"[6]; MIC of antibiotic, PA263, +PAFA10 (10 μM)",8 mg/L
same,MIC,"[6]; MIC of antibiotic, PA263, +PAFA11 (10 μM)",4 mg/L
same,MIC,"[6]; MIC of antibiotic, PA263, +PAFA14 (10 μM)",1 mg/L
same,MIC,"[6]; PA263, Antibiotic alone",32 mg/L
CCCCC/C=C\C/C=C\CCCCCCCC(=O)NCCCCN [PAFA8],MIC,[7],> 200 µM
same,MIC,[8],> 200 µM
same,MIC,[9],200 µM
same,MIC,[10],> 200 µM
CCCCC/C=C\C/C=C\CCCCCCCC(=O)NCCCN(C)CCCN [PAFA9],MIC,[7],50 µM
same,MIC,[8],200 µM
same,MIC,[9],50 µM
same,MIC,[10],25 µM
same,IC50,[11],84 µM
same,MIC,[1]; [13],25 µM
CCCCC/C=C\C/C=C\CCCCCCCC(=O)NCCCN(CCCN)CCCN [PAFA10],MIC,[7],25 µM
same,MIC,[8],25 µM
same,MIC,[9],25 µM
same,MIC,[10],> 200 µM
same,IC50,[11],79 µM
same,MIC,[1]; [13],12.5 µM
CCCCC/C=C\C/C=C\CCCCCCCC(=O)NCCCNCCCN [PAFA11],MIC,[7],12.5 µM
same,MIC,[8],25 µM
same,MIC,[9],12.5 µM
same,MIC,[10],100 µM
same,IC50,[11],21 µM
same,MIC,[1]; [13],12.5 µM
CCCCC/C=C\C/C=C\CCCCCCCC(=O)NCCNCCNCCN [PAFA12],MIC,[7],100 µM
same,MIC,[8],100 µM
same,MIC,[9],200 µM
same,MIC,[10],50 µM
same,IC50,[11],166 µM
same,MIC,[1]; [13],50 µM
CCCCC/C=C\C/C=C\CCCCCCCC(=O)NCCCNCCCCNCCCN [PAFA14],MIC,[7],12.5 µM
same,MIC,[8],100 µM
same,MIC,[9],12.5 µM
same,MIC,[10],25 µM
same,IC50,[11],98 µM
same,MIC,[1]; [13],6.25 µM
CC[C@H]1OC(=O)[C@H](C)[C@@H](O[C@H]2C[C@@](C)(OC)[C@@H](O)[C@H](C)O2)[C@H](C)[C@@H](O[C@@H]2O[C@H](C)C[C@H](N(C)C)[C@H]2O)[C@](C)(O)C[C@@H](C)C(=O)[C@H](C)[C@@H](O)[C@]1(C)O [erythromycin],MIC,[12],50 mg/L

# Source: patent US20260373101A1, “POLYAMINATED FATTY ACIDS FOR USE AS POTENTIATORS OF ANTIBACTERIAL ACTIVITY” (priority 2023, published 2026)
